Test results from ChEMBL document CHEMBL1158453 (J Med Chem, 2009).

Columns and labels:
[1] = Octanol-water distribution coefficient, log D at pH 7.4 by HPLC; format: physicochemical
[2] = Chemical stability in 50 mM borate buffer at pH 9.0 at 37 degC assessed as half life by HPLC; format: physicochemical
[3] = Metabolic stability in 20% rat liver homogenate assessed as half life by HPLC; format: ADME, tissue-based; settings: 20% liver homogenate
[4] = Chemical stability in 15 mM hydrogen peroxide solution at pH 7.4 at 37 degC assessed as half life by HPLC; format: physicochemical
[5] = Octanol-water distribution coefficient, log D at pH 4 by HPLC; format: physicochemical
[6] = Metabolic stability in rat serum assessed as half life by HPLC; format: ADME, cell-free
[7] = Chemical stability in 50 mM HCl buffer at pH 1.0 at 37 degC assessed as half life by HPLC; format: physicochemical
[8] = Chemical stability in 50 mM acetate buffer at pH 4.0 at 37 degC assessed as half life by HPLC; format: physicochemical
[9] = Chemical stability in 50 mM phosphate buffer at pH 7.4 at 37 degC assessed as half life by HPLC; format: physicochemical
Serum = assay: Metabolic stability in human serum assessed as half life by HPLC; format: ADME, cell-free
Rattus norvegicus [10] = assay: Oral bioavailability in Wistar rat assessed as metformin level at 100 mg/kg; format: ADME, organism-based; settings: in vivo
Rattus norvegicus [11] = assay: AUC (0 to infinity) in Wistar rat plasma assessed as metformin level at 67 mg/kg, iv; format: ADME, organism-based; set-up: time infinity, dose 67 mg/kg, route intravenous; settings: in vivo
[12] = Metabolic stability in human serum assessed as compound degradation to metformin after 24 hrs by HPLC; format: ADME, cell-free; settings: read-out: Activity
[13] = Metabolic stability in rat serum assessed as compound degradation to metformin after 24 hrs by HPLC; format: ADME, cell-free; settings: read-out: Activity
Rattus norvegicus [14] = assay: Cmax in Wistar rat plasma assessed as metformin level at 67 mg/kg, iv; format: ADME, organism-based; set-up: dose 67 mg/kg, route intravenous; settings: in vivo
Rattus norvegicus [15] = assay: Cmax in Wistar rat plasma assessed as metformin level at 100 mg/kg, po; format: ADME, organism-based; set-up: dose 100 mg/kg, route oral; settings: in vivo
[16] = Metabolic stability in 20% rat liver homogenate assessed as compound degradation to metformin after 24 hrs by HPLC; format: ADME, tissue-based; settings: 20% liver homogenate, read-out: Activity
Rattus norvegicus [17] = assay: Tmax in Wistar rat plasma assessed as metformin level at 100 mg/kg, po; format: ADME, organism-based; set-up: dose 100 mg/kg, route oral; settings: in vivo
[18] = Chemical stability in 50 mM phosphate buffer at pH 7.4 at 37 degC assessed as compound degradation to metformin after 4 weeks by HPLC; format: physicochemical; settings: read-out: Activity
[19] = Chemical stability in 50 mM acetate buffer at pH 4.0 at 37 degC assessed as compound degradation to metformin after 4 weeks by HPLC; format: physicochemical; settings: read-out: Activity
Rattus norvegicus [20] = assay: AUC (0 to infinity) in Wistar rat plasma assessed as metformin level at 100 mg/kg, po; format: ADME, organism-based; set-up: time infinity, dose 100 mg/kg, route oral; settings: in vivo
Rattus norvegicus [21] = assay: Tmax in Wistar rat plasma assessed as metformin level at 67 mg/kg, iv; format: ADME, organism-based; set-up: dose 67 mg/kg, route intravenous; settings: in vivo
[22] = Chemical stability in 50 mM borate buffer at pH 9.0 at 37 degC assessed as compound degradation to metformin after 4 weeks by HPLC; format: physicochemical; settings: read-out: Activity
in vivo [23] = settings: Wistar, rat, plasma, po, 140 mg/kg
Description: Cmax in Wistar rat plasma at 140 mg/kg, po

Rattus norvegicus [24] = assay: AUC (0 to infinity) in Wistar rat plasma at 35 mg/kg, iv; format: ADME, organism-based; set-up: time infinity, dose 35 mg/kg, route intravenous; settings: in vivo
[25] = Cmax in Wistar rat plasma at 35 mg/kg, iv; format: ADME, organism-based; set-up: dose 35 mg/kg, route intravenous
[26] = Tmax in Wistar rat plasma at 35 mg/kg, iv; format: ADME, organism-based; set-up: dose 35 mg/kg, route intravenous
in vivo [27] = settings: Wistar, rat, plasma, po, 140 mg/kg; remark: listed apart in the source
Description: AUC (0 to infinity) in Wistar rat plasma at 140 mg/kg, po

in vivo [28] = settings: Wistar, rat, plasma, po, 140 mg/kg; remark: listed apart in the source
Description: Tmax in Wistar rat plasma at 140 mg/kg, po

SMILES: CN(C)C(=N)/N=C(\N)NSc1ccccc1
- logD [1]: -0.76
- half-life [2]: 18.1 min
- half-life [3]: 0.25 min
- half-life [4]: 14.2 min
- logD [5]: -0.7
- half-life [6]: 36.8 min
- half-life [7]: 12.1 min
- half-life [8]: 78.6 h
- half-life [9]: 78.6 h
- t1/2 (Serum): 0.0623 min

SMILES: CN(C)C(=N)/N=C(\N)NSC1CCCCC1
- logD [1]: 0.49
- half-life [4]: 35.8 min
- F (Rattus norvegicus [10]): 64.5%
- AUC (Rattus norvegicus [11]): 291 µg·min/mL
- logD [5]: -1.1
- metabolised at 24 h [12]: 10%
- metabolised at 24 h [13]: 10%
- half-life [7]: 478 min
- Cmax (Rattus norvegicus [14]): 3000 ng/mL
- Cmax (Rattus norvegicus [15]): 1300 ng/mL
- metabolised at 24 h [16]: 10%
- Tmax (Rattus norvegicus [17]): 60 min
- degraded at 672 h [18]: 10%
- degraded at 672 h [19]: 10%
- AUC (Rattus norvegicus [20]): 275 µg·min/mL
- Tmax (Rattus norvegicus [21]): 10 min
- degraded at 672 h [22]: 40%

SMILES: CN(C)C(=N)N=C(N)N [METFORMIN]
- Cmax (in vivo [23]): 1700 ng/mL
- AUC (Rattus norvegicus [24]): 170 µg·min/mL
- Cmax [25]: 20900 ng/mL
- Tmax [26]: 1 min
- AUC(0-inf) (in vivo [27]): 4820 ng·h/mL
- Tmax (in vivo [28]): 50 min
